Laboratory results published in patent publication EP0846119B1, “THIENOPYRIMIDINE DERIVATIVES, THEIR PRODUCTION AND USE AS ENDOTHELIN ANTAGONISTS” (Takeda Chemical Industries, Ltd., priority 1995, dated 1997).
Where two headings read alike, the source gives them in different places.

What was measured:
[1] = biological target: T1, human ETB endothelin receptor (Homo sapiens, UniProt P24530); assay: Binding Test to ETB receptor expressed in CHO cell (ET-1-stimulated [3H]arachidonic acid release); format: cell-based; details: CHO cell expressing human ETB (ETB 12 cells), final concentration of ET-1 6.3x10^-10M, n=2
T1 construct: expressed in transfected cells; host or cells: CHO cells (clone ETB 12)
T1 sequence (P24530 27-442): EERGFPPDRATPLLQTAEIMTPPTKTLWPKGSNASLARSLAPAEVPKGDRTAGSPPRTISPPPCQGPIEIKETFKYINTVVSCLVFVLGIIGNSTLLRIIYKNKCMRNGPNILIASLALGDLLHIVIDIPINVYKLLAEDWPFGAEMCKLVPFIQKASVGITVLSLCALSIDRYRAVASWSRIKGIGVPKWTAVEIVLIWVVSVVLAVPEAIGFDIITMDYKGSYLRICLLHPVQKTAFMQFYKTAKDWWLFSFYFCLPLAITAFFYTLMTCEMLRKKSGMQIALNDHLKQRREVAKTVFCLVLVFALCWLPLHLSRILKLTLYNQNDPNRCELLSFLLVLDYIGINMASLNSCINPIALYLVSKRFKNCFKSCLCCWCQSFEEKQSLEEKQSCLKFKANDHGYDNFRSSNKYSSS
Method: Binding Test to ETB receptor expressed in CHO cell:
cells: CHO cell expressing human ETB endothelin receptor, i.e. ETB 12 cells medium: DMEM 10% FCS Gln, nonessential amino acids, penicillin, streptomycin
Cells were seeded in 12 wells of 24 well plates at a density of 2x10^5 cells/well (1 ml medium/well). On the next day, [^3H]arachidonic acid was added to each well to be 250 nCi(nanocurie)/ml. On the next day, the medium was sucked from the wells by the use of an aspirator to remove free arachidonic acid and floating cells, and then 0.5 ml of medium was added. This procedure was repeated agian. After allowing to stand for 30minutes in a CO2 incubator, the medium was exchanged rapidly.
The sample of compound obtained in Example 5 or compound 16 of Example 11 was stepwise diluted with a buffer solution for dilution, containing 3.15x10^-8M endothelin-1 (ET-1) {20 mM Tris, 5mM Mg(AcO)2, 2 mM EGTA, 0.03% NaN3, 0.1% BSA, 0.05% CHAPS}. 10 µl of the solution was added to each well (final concentration of ET-1: 6.3x10^-10M). […] After allowing to-stand for 30 minutes in the CO2 incubator, the medium was completely collected and the radio activity of [^3H]arachidonic acid released in the medium was measured by a liquid scintillation counter. IC50 values were calculated by Hill Plot from the concentration and relative reaction value of each sample.

[2] = tested on: coronary vein where ETB is expressed; assay: Inhibition Test on coronary vein where ETB is expressed (S6c-induced constriction of ring samples); details: Sus scrofa, porcine coronary vein ring, pre-treatment 30 minutes, relative to vehicle group, read-out: % inhibition (MEAN ± S.E.M.) (n=) vein (S6c 1 nM); for inhibition at 0.1 µM: compound 0.1 µM; for inhibition at 10 µM: compound 10 µM
Method: Inhibition Test on coronary vein where ETB is expressed:
3-mm ring samples for vehicle group and drug-treating group were prepared by removing fat and connective tissue from coronary vein enucleated from porcine heart and obtained from the adjacent portions thereof. The samples, hanging in Magnus tube filled with Krebs solution, were stabilized for 90 minutes under 0.5 g static tension. After subjecting the samples to constriction for 10 minutes by potassium chloride (KCl) (60 mM) to obtain the maximum reaction, the samples were washed and stabilized for 60 minutes. After pre-treating compound obtained in Example 5 or Compound 16 of Example 11 or vehicle (H2O) for 30 minutes, S6c (1 nM) (S6c: sarafotoxin S6c, peptide type snake toxin consisting of 21 amino acids, it is useful for the selective agonist to ETB receptor owing to the similarity of its structure to endothelin) was added to observe the maximum constriction.
The constriction efficiency (% KCl) of S6c was calculated as a relative value to KCl constriction of each sample which was regarded as 100%. Further, the inhibiting efficiency was calculated from the constriction efficiency of the drug-treating group calculated as a relative value to the constriction of the vehicle group which was regarded as 100%.

[3] = biological target: T2, human endothelin-A (ETA) receptors (Homo sapiens, UniProt P25101); assay: Binding Test to ETA receptor expressed in an insect cell Sf9 ([125I]endothelin-1 displacement)
T2 construct: made in house; host or cells: Sf9 insect cells (membrane fractions)
T2 sequence (P25101 21-427): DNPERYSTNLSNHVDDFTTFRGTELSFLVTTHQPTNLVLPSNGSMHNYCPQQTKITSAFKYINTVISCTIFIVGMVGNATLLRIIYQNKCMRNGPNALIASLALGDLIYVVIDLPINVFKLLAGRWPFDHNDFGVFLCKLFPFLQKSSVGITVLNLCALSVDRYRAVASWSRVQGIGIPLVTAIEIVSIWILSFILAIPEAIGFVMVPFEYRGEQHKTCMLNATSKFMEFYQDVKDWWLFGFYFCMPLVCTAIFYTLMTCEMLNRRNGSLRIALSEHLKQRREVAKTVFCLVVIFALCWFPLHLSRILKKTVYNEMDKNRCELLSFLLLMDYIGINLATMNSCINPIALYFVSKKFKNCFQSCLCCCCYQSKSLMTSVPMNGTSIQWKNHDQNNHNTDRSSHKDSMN
Method: Binding Test to ETA receptor expressed in an insect cell Sf9:
Endothelin (ET) receptors were prepared by diluting fractions of insect cell (Sf9) membrane having human endothelin-A (ETA) receptors expressed, with an assay buffer {20 mM Tris-HCl, 2 mM EGTA (ethyleneglycol bls(2-aminoethylether) tetra acetic acid), 5 mM magnesium acetate, 0.1% BSA (bovine serum albumin), 0.03% NaN3, 0.5 mM PMSF (phenyl methyl sulfonyl fluoride), 20 µg/ml leupeptin, 4 µg/ml E-64 (products of the Peptide Institute, Japan), 1 µg/ml pepstatin, (pH 7.2)} respectively in a concentration of 1.4 µg/ml in the former case and 0.7 µg/ml in the latte case.
To 100 µl of each portion was added 5 nM[^125I] endothelin-1 (2 µl). A dimethylsulfoxide solution (3 µl) of the test compound was added thereto and incubated at 25°C for 60 minutes.
And, to determine the maximum binding amount (B0) and non-specific binding amount (NSB), lots to which a dimethyl sulfoxide solution (3 µl) or a dimethyl sulfoxide solution (3 µl) containing endothelin-1 (10^-3M) had been added, were also incubated.
These lots were supplemented with 0.05% CHAPS(3-[(3-chloroamidopropyl)dimethylammonio]-1-propanesulfonate)-assay buffer (1.5 ml), subjected to filtration through a glass fiber filter GF/F (trade name; product of Whatman Ltd. (England)), and then washed with the same buffer (1.5 ml)).
Radioactivity on the filter was counted in a gamma-counter to determine the Percent Maximum Binding (PMB) in accordance with the aforesaid calculation formula. The concentration causing PMB=50% was determined as IC50 value.

[4] = Sf9 membrane fractions, [125I]endothelin-1, 25°C, 60 minutes, concentration causing PMB=50%, read-out: IC50 value: µM Human endotherin-A receptor
[5] = Table 5, values recur in Table 7, read-out: Binding IC50 (µM) ETA

Row | SMILES | IC50 [1] [nM] | inhibition at 0.1 µM [2] [%] | inhibition at 10 µM [2] [%] | IC50 [3, 4] [µM] | IC50 [3, 5] [µM]
1 | CCS(=O)(=O)NCc1c(-c2ccc(OCOC)cc2)sc2c1c(=O)n(CC(=O)O)c(=O)n2Cc1ccccc1SC [11(16), 2,4(1H,3H)-Dioxo-6-(4-methoxymethoxyphenyl)-1-(2-methylthiobenzyl)-5-(ethanesulfonamidomethyl)thieno[2,3-d]pyrimidine-3-acetic acid] | 130 | 53.3 ± 4.4 | 98 ± 1.1 | 0.0061 | 0.0061
2 | COCOc1ccc(-c2sc3c(c2CNS(C)(=O)=O)c(=O)n(CC(=O)O)c(=O)n3Cc2ccccc2SC)cc1 [Example 5, 2,4(1H,3H)-dioxo-6-(4-methoxymethoxyphenyl)-1-(2-methylthiobenzyl)-5-(methanesulfonamidomethyl)thieno[2,3-d]pyrimidine-3-aretic acid] | 490 | 73.4 ± 3.1 | 100 | 0.011 | 0.0076
